# Measured values reported in patent publication US20100184213A1, “APOCRINE CELL LINE” (priority 2007, published 2010).
# What was measured:
# [1] = test system: primary apocrine cultures; experiment: Short circuit current (Isc) in Ussing chamber, primary apocrine cultures on Transwells; assay type: cell-based, human; conditions: for Peak agonist Isc response, Control / Peak agonist Isc response after amiloride pre-treatment, Control / Peak agonist Isc response, Chloride-free / Peak agonist Isc response after amiloride pre-treatment, Chloride-free / ΔIsc (change of resting short circuit current): primary apocrine; for Peak agonist Isc response, Control / Peak agonist Isc response after amiloride pre-treatment, Control: chloride-containing buffer; for Peak agonist Isc response, Control / Peak agonist Isc response, Chloride-free: Carbachol 20 μM; for Peak agonist Isc response, Control / Peak agonist Isc response after amiloride pre-treatment, Control / Peak agonist Isc response, Chloride-free / Peak agonist Isc response after amiloride pre-treatment, Chloride-free: Histamine 200 μM, ATP 100 μM; for Peak agonist Isc response after amiloride pre-treatment, Control / Peak agonist Isc response after amiloride pre-treatment, Chloride-free: Carbachol 200 μM, Isoprenaline ≧1 μM, LBK 170 nM; for ΔIsc (change of resting short circuit current): amiloride 10 μM apical, furosemide 1 mM basolateral
# Protocol: (§1) After 13-18 days, confluent ASG5 cultures were passaged onto Transwell collagen-coated permeable supports (0.33 cm^2 area, Costar, cat. no. 3495, High Wycombe, Bucks, UK). This involved incubation in 2% EDTA for 20 minutes, followed by trypsin (0.5%)-EDTA (0.2%) for approximately five minutes. 3×10^5 cells were transferred onto each Transwell supplemented with WEM. The Transwell supports were suspended in 24-well plates in 0.6 ml of the same medium. For primary cultures, only first passage cells were used in experiments. The medium bathing cultures on Transwells was changed every two days.
# (§2) Transepithelial resistance (TER) across epithelia on Transwells was monitored using ‘chopstick’ electrodes (WPI, Alresford, Hants, UK) connected to an ohmmeter. The TER was estimated by subtracting the measurement for a moistened filter blank. At peak TER, the Transwell supports were mounted in an Ussing Chamber. Epithelia were bathed in a modified Krebs buffer, oxygenated and maintained at 37° C., pH 7.4, with 95% O2/5% CO2. The buffer consisted of (mM): NaCl, 117; KCl, 4.7; CaCl2, 1.5; MgSO4, 1.2; NaHCO3, 25; and glucose, 11.1. Voltage and current electrodes (calomel and silver/silver chloride respectively, ABB Kent Taylor, Stonehouse, Glos, UK), connected to a voltage/current clamp were extended into the bath via bridges containing agar dissolved in 3 M potassium chloride.
# (§3) Voltage electrodes were balanced in the absence of a Transwell and fluid resistance between the voltage electrodes was compensated for by the injection of an arbitrary DC current. After mounting a Transwell the epithelium was short-circuited, the current allowed to stabilise, typically for 15 minutes. Given the rarity of apocrine material, drugs were typically added in succession as disclosed by Brayden et al (1988) J. Physiol, 405: 657-675, Pedersen et al (1992) Exp. Physiol, 77; 863-871, and Shen et al, (1994) Am. J. Physiol, 266: L493-501 and changes in short circuit current (I^sc) recorded. The duration of experiments was typically 15-60 min. TER was estimated using Ohm's Law, routinely by clamping the voltage at ±10 mV and measuring the current required to achieve this. Unless otherwise stated all drugs listed in the legend were added to the basolateral side, except for amiloride that was added to the apical side. Amiloride is an inhibitor of the epithelial Na^+ channel (ENaC) and the Na^+/H^+ exchanger.
# (§4) Chloride substitution experiments were carried out in Krebs buffer in which sodium gluconate was substituted for NaCl, potassium gluconate for KCl and CaSO4 for CaCl2. Glucose-free experiments were carried out with 11.1 mM mannitol as a replacement to maintain osmolality. Experiments in which barium was used as an inhibitor of potassium channels were carried out in the absence of sulphate ions, such that MgCl2 replaced MgSO4.
# [2] = test system: proliferating apocrine cultures (ASG5); experiment: Short circuit current (Isc) in Ussing chamber, proliferating apocrine cultures on Transwells; assay type: cell-based, human; conditions: for Peak agonist Isc response, Control / Peak agonist Isc response, Chloride-free: proliferating (ASG5), Carbachol 20 μM; for Peak agonist Isc response, Control / Peak agonist Isc response after amiloride pre-treatment, Control: chloride-containing buffer; for Peak agonist Isc response, Control / Peak agonist Isc response, Chloride-free / Peak agonist Isc response after amiloride pre-treatment, Control / Peak agonist Isc response after amiloride pre-treatment, Chloride-free: Histamine 200 μM, ATP 100 μM; for Peak agonist Isc response after amiloride pre-treatment, Control / Peak agonist Isc response after amiloride pre-treatment, Chloride-free / ΔIsc (change of resting short circuit current): proliferating apocrine; for Peak agonist Isc response after amiloride pre-treatment, Control / Peak agonist Isc response after amiloride pre-treatment, Chloride-free: Carbachol 200 μM, Isoprenaline ≧1 μM, LBK 170 nM; for ΔIsc (change of resting short circuit current): furosemide 1 mM basolateral
# Protocol: as §1, §2, §3, §4
# [3] = test system: eccrine sweat gland cells; experiment: Short circuit current (Isc) in Ussing chamber, primary eccrine sweat gland cells; assay type: cell-based; conditions: amiloride 10 μM apical
# [4] = test system: primary cultures of apocrine secretory coils; experiment: TPA treatment of primary cultures of apocrine secretory coils in MEGM; assay type: cell-based, human; conditions: TPA 250 nM in MEGM; 3-4 days after addition
# Protocol: A proliferating apocrine cell line was derived from primary cultures of apocrine secretory coils. After 7 days culture in MEGM, the potent phorbol ester, TPA (phorbol-12-myristate-13 acetate; ex Calbiochem, Nottingham, UK) was included in the medium at a concentration of 250 nM. […] Commonly, the ester comprises at least aliphatic substituent particularly suitably at the 12 and/or 13 positions, such as a long chain alkyl (C7 to C24) and optionally also a short chain alkyl (C2 to C6).
# However, the upper differentiated layers were removed by repeated washing to leave a proliferative monolayer of cells still attached to the flask. Cells of the proliferative layer were passaged into 96 well plates to generate clonal cell lines. Cells were maintained, passaged and continued to grow in MEGM containing TPA for approximately 2 months. After this period cells were cultured in MEGM alone and monitored for continued proliferation. Initially, many subclones continued to grow, but by the end of the next 10 passages, the majority had begun to senesce. One culture, in particular, ASG5, continued to grow and has now been maintained in culture, proliferating over more than 40 passages with no signs of a reduction in growth rate. […] This culture continues to proliferate in the absence of TPA, can survive cryopreservation and is considered to be stable.
Molecule,"Peak agonist Isc response, Control [1] [μA cm^−2]","Peak agonist Isc response after amiloride pre-treatment, Control [1] [μA cm^−2]","Peak agonist Isc response, Chloride-free ([1]; chloride-free buffer) [μA cm^−2]","Peak agonist Isc response after amiloride pre-treatment, Chloride-free ([1]; chloride-free buffer) [μA cm^−2]","Peak agonist Isc response, Control [2] [μA cm^−2]","Peak agonist Isc response, Chloride-free ([2]; chloride-free buffer) [μA cm^−2]","Peak agonist Isc response after amiloride pre-treatment, Control [2] [μA cm^−2]","Peak agonist Isc response after amiloride pre-treatment, Chloride-free ([2]; chloride-free buffer) [μA cm^−2]",also measured
"Nc1ncnc2c1ncn2[C@@H]1O[C@H](COP(=O)(O)OP(=O)(O)OP(=O)(O)O)[C@@H](O)[C@H]1O [ATP, Adenosine triphosphate]",7.4 ± 1.8,4.9 ± 0.7,2.9 ± 0.9,4.3 ± 2.4,6.3 ± 1.8,4.0 ± 0.5,1.8 ± 0.3,0.8 ± 0.2,–
N=C(N)NC(=O)c1nc(Cl)c(N)nc1N [Amiloride],–,–,–,–,–,–,–,–,"reduction of basal Isc under chloride-free conditions ([1]; amiloride 10 μM, chloride-free buffer, primary cultures): 3.6 μA cm^−2; ΔIsc (change of resting short circuit current) [1]: −6.0 ± 0.9 μA cm^−2; ΔIsc (change of resting short circuit current) [3]: −7.1 ± 0.7 μA cm^−2; IC50 ([2]; Homo sapiens, apical amiloride, read-out: IC50 for amiloride (dose response curves, resting Isc)): 2 to 4 µM; carbachol stimulation of Isc after amiloride pre-treatment (FIG. 4A versus FIG. 3) ([2]; amiloride 10 μM apical, CCh 20 μM): reduced; effect of amiloride pre-treatment on peak Isc responses to CCh, His and ATP (FIG. 2) ([2]; amiloride 10 μM apical, CCh 20 μM, His 200 μM, ATP 100 μM basolateral): significantly reduced; reduction of basal Isc under chloride-free conditions ([2]; amiloride 10 μM, chloride-free buffer, proliferating cultures): 2.5 μA cm^−2; reduction of resting Isc ([2]; apically applied amiloride 10 μM, n=20, P<0.001): 4.5±1.0 μA cm^−2; ΔIsc (change of resting short circuit current) ([2]; amiloride 10 μM apical): −4.2 ± 1.0 μA cm^−2"
C[N+](C)(C)CCOC(N)=O [Carbachol],3.9 ± 0.7,6.3 ± 1.4,0.7 ± 0.6,1.7 ± 1.2,4.0 ± 0.7,3.0 ± 0.8,2.4 ± 0.6,1.3 ± 0.3,–
NS(=O)(=O)c1cc(C(=O)O)c(NCc2ccco2)cc1Cl [Furosemide],–,–,–,–,–,–,–,–,"Inhibition by furosemide of agonist response, ΔIsc ([1]; 90 µM): 0.8 ± 0.2 μA cm^−2; Inhibition by furosemide of agonist response, ΔIsc ([1]; furosemide 90 μM, agonist ATP 100 μM, primary): −2.6 ± 0.5 μA cm^−2; Inhibition by furosemide of agonist response, ΔIsc ([1]; furosemide 90 μM, agonist Carbachol ≧20 μM, primary): −2.0 ± 0.5 μA cm^−2; Inhibition by furosemide of agonist response, ΔIsc ([1]; furosemide 90 μM, agonist Histamine 200 μM, primary): −1.3 ± 0.2 μA cm^−2; agonist Isc responses on addition of furosemide after agonist stimulation ([1]; primary apocrine cultures): rapid reduction in responses; ΔIsc (change of resting short circuit current) [1]: −0.5 ± 0.2 μA cm^−2; Inhibition by furosemide of agonist response, ΔIsc ([2]; 90 µM): −1.2 ± 0.3 μA cm^−2; Inhibition by furosemide of agonist response, ΔIsc ([2]; furosemide 90 μM, agonist ATP 100 μM, proliferating): −1.2 ± 0.3 μA cm^−2; Inhibition by furosemide of agonist response, ΔIsc ([2]; furosemide 90 μM, agonist Carbachol ≧20 μM, proliferating): −1.1 ± 0.4 μA cm^−2; Inhibition by furosemide of agonist response, ΔIsc ([2]; furosemide 90 μM, agonist Histamine 200 μM, proliferating): −1.0 ± 0.4 μA cm^−2; magnitude of Isc response to carbachol after furosemide pre-treatment (FIG. 4B versus FIG. 3) ([2]; furosemide 1 mM pre-treatment, CCh 20 μM): reduces the magnitude of response; ΔIsc (change of resting short circuit current) ([2]; amiloride 10 μM apical): −0.8 ± 0.3 μA cm^−2; agonist Isc responses on addition of furosemide after agonist stimulation ([2]; transformed apocrine cultures): rapid reduction in responses"
NCCc1c[nH]cn1 [Histamine],6.4 ± 1.3,4.2 ± 0.5,1.7 ± 0.5,2.4 ± 1.4,4.8 ± 1.3,3.3 ± 0.8,1.9 ± 0.4,1.0 ± 0.2,–
CC(C)NCC(O)c1ccc(O)c(O)c1 (stereo not shown) [Isoprenaline],–,1.8 ± 0.4,–,0.7 ± 0.3,–,–,1.8 ± 0.4,0.8 ± 0.2,–
"CCCCCCCCCCCCCC(=O)O[C@@H]1[C@@H](C)[C@@]2(O)[C@@H](C=C(CO)C[C@]3(O)C(=O)C(C)=C[C@@H]23)[C@@H]2C(C)(C)[C@]12OC(C)=O [TPA, phorbol-12-myristate-13 acetate]",–,–,–,–,–,–,–,–,effect on culture morphology (multilayering) [4]: induced premature multilayering
"L-bradykinin (RPPGFSPFR; Bradykinin; UniProt P01042 381-389, looked up) [LBK, agonist added basolaterally]",–,2.0 ± 0.5,–,0.6 ± 0.4,–,–,1.6 ± 0.3,0.9 ± 0.3,–
